{"source": "patent US9873920B2", "about": "“Method for evaluating side-effect onset risk in anticancer drug treatment, including detecting MUC4 gene polymorphism” (SAITAMA MEDICAL UNIVERSITY, priority 2013, dated 2018)", "key": {"[1]": {"conditions": "human, in vivo", "source_text": "It should be noted, of course, that death due to the side effect of drugs is a serious problem also in countries other than Japan, apart from its frequency."}, "[2]": {"conditions": "cited from earlier work"}, "[3]": {"conditions": "cited from earlier work", "remark": "listed apart in the source"}}, "note": "Like-named read-outs stand apart in the source and are kept apart here."}
{"smiles": "COc1cc2ncnc(Nc3ccc(F)c(Cl)c3)c2cc1OCCCN1CCOCC1", "note": "[gefitinib]", "values": [{"measurement": "times higher frequency of diffuse alveolar damage in Japanese", "setting": "[1]", "value": "not less than 10 times"}]}
{"smiles": "C#Cc1cccc(Nc2ncnc3cc(OCCOC)c(OCCOC)cc23)c1", "note": "[erlotinib]", "values": [{"measurement": "times higher frequency of diffuse alveolar damage in Japanese", "setting": "[1]", "value": "not less than 10 times"}, {"measurement": "frequency of diffuse alveolar damage", "setting": "[2]; in Japanese", "value": 2.7, "unit": "%"}, {"measurement": "frequency of diffuse alveolar damage", "setting": "[2]; surveys on Asians", "value": 0.2, "unit": "%"}, {"measurement": "frequency of development of ILD in Chinese relative to Japanese", "setting": "[3]; Chinese versus Japanese", "value": "not more than the frequency of development in Japanese"}, {"measurement": "frequency of development of ILD in Westerners relative to the frequency in Japanese", "setting": "[3]; Westerners versus Japanese", "value": "not more than 1/10"}, {"measurement": "frequency of development of interstitial lung disease (ILD)", "setting": "[3]; in Japanese", "value": "about 4%"}]}
